SMILES strings stand for the structures.

One test deals with T1, β-catenin (Homo sapiens, UniProt P35222).
T1 sequence (P35222 1-781): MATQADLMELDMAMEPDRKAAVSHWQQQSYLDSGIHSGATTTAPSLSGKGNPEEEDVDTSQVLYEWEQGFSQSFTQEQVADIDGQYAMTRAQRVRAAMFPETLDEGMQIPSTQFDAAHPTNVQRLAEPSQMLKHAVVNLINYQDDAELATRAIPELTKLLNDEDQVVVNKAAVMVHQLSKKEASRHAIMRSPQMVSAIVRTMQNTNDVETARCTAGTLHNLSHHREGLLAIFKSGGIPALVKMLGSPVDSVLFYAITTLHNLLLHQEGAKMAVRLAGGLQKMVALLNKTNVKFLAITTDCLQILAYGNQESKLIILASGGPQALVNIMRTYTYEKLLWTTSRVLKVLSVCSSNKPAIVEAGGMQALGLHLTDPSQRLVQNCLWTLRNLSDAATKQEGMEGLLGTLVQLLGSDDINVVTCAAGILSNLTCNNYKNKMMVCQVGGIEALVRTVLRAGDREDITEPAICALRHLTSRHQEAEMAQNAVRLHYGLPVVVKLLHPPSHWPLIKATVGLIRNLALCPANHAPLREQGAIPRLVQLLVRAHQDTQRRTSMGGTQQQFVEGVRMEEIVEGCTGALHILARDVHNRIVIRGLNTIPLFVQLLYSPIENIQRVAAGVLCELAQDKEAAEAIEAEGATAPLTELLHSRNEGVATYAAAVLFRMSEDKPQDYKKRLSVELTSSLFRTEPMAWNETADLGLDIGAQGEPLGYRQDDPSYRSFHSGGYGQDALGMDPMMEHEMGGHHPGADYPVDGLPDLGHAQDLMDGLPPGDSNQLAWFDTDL
Description: SRP test (Biacore T200), binding to ligand β-catenin. As to conditions: Biacore T200, CM5 chip with β-catenin, HEPES pH 7.4, 0.1% DMSO, 25 °C. The method, then: • 1. Experimental settings • 1. The analyte is in powder form. • 2. The temperature is 25 °C • 3. The analysis equipment adopts Biacore T200 instrument. • 2. Sample dilution • 1. Ligand β-catenin diluted with HEPES (pH 7.4), 0.5 mg/mL • 2. The analyte was dissolved in DMSO and diluted with 0.1% DMSO HEPES (pH 7.4). • 3. Experimental process • 1. Operate and start according to the standard of Biacore T200 instrument. • 2. Prepare buffer HEPES (pH 7.4) and 500 ml of deionized water for washing syringes (filtered by […] membrane). • 3. Start installing the chip and install the Cm5 chip according to the standard process. • 4. Prepare to start the formal experiment, the buffer will flush the flow path system inside the entire system at a high flow rate. • 5. Choose the appropriate program according to the sample size. • 6. Start capturing the chip and prepare a sufficient volume of ligands β-catenin, EDC/NHS, and blocking solution. The conjugation procedure was started with a conjugation time of 7 min, a flow rate of […], and a final ligand conjugation of approximately 16000RU. • 7. After the conjugation is completed, the sample detection is started, and the analyte binding time is set to 120 s. • Flow rate of 30 μL/min; The dissociation time was 200 s and the flow rate was 30 μL/min. Regeneration time 30 s, • The flow rate is 30 μL/min. • 8. […]
A general note: SPR reads the build-up and loss of mass on a sensor chip optically.

The next test concerns SW480 cells. Description: CCK8 assay, SW480 cells. Type of test: cell-based. The settings on record: CCK-8, SW480 cells, 24 hours incubation at 37 °C, DMEM (2% FBS), OD450-OD600. The method, then:
• 1. SW480 Cell plate • Cells digested, counted, and laid a 96-well plate (flat-bottomed transparent) with 10,000 cells/100 ul DMEM (10% FBS) per well; • 2. Observe the cell status on the next day, and start adding medicine after the cells are intact; • 3. Dilute the compound with DMEM (2% FBS) and dilute it in a gradient at concentrations of 20 μM, 10 μM, 5 μM, 2.5 μM, 1.25 μM, 0.625 μM, 0.3125 μM, 0.15625 μM, 0 μM (equal volume DMSO); • 4. Add 100 μl of the above compounds of different concentrations to each well, and make 2 compound wells for each concentration gradient; Leave 3 blank wells (DMEM 2% FBS culture medium only, no cells); • 5. Incubate at 37 °C for 24 hours; • 6. […] Measure absorbance at 450 nm and absorbance at 600 nm (exclude interference from the reagent base color and the absorbance value of the plate itself); • 9. The final absorbance value is OD450 nm-OD600 nm, and the rejection rate is calculated.
Suppression Rate=[(Ac−As)/(Ac−Ab)]×100% • As: absorbance of the experimental wells (medium containing cells, CCK-8, drug to be tested); • Ac: absorbance of the control wells (medium containing cells, CCK-8, no drug to be tested); • Ab: Absorbance of blank wells (medium without cells and drug to be tested, CCK-8).
On the technique in general: Formazan colour is commonly taken as a measure of viable cells.

As usually defined, the Kd is a measure of binding affinity in units of concentration. Lower therefore signals a tighter complex. In turn, `CC(C)c1ccc(-c2cccc(S(=O)(=O)N3CCCC(c4cccc(OC(C)(C)C(=O)NCC(=O)N5CCC[C@H]5CN)c4)C3)c2)cc1` (stereo partly shown) [Compound 115-010] had a dissociation constant (Kd) at β-catenin of 284 µM.

Compound `CC(C)c1ccc(-c2cccc(S(=O)(=O)N3CCCC(c4cccc(OC(C)(C)C(=O)NCC(=O)N5CC[C@@H](CN)C5)c4)C3)c2)cc1` (stereo partly shown) [Compound 115-012] had a Kd on β-catenin of 760 µM. Compared with the last compound, the Kd is about 2.7-fold higher.

What is called IC50 is the concentration needed to halve the response being measured. Consider `CC(C)c1ccc(-c2cccc(S(=O)(=O)N3CCCC(c4cccc(OC(C)(C)C(=O)NCC(=O)N5CCC[C@H]5CCN)c4)C3)c2)cc1` (stereo partly drawn) [Compound 115-014, N-(2-((S)-2-(2-aminoethyl)pyrrolidin-1-yl)-2-oxyethyl)-2-(3-(1-((4′-isopropyl-[1,1′-Biphenyl]-3-yl)sulfonylpiperidine-3-yl)phenoxy)-2-methylpropionamide)], for which the 50% inhibitory concentration (IC50) with SW480 cells (Homo sapiens, read-out: SW^10 IC50) came to 52.9 µM.

For `CC(C)(Oc1cccc(C2CCCN(C(=O)NCc3ccc(-c4cn[nH]c4)cc3)C2)c1)C(=O)NCC(=O)N1CCCC1CN` (stereo not shown) [Compound 115-020], the “SW^10 IC50” value in the test with SW480 cells is recorded as “Inactive”.

(Values after US20260327202A1, “COMPOUND CONTAINING 2-METHYL-2-(3-(PIPERIDIN-3-YL)PHENOXY)-2-METHYLPROPANAMIDE SKELETON” (JIANGSU MINGSHENG JUTAI BIOTECHNOLOGY CO. LTD, priority 2023, published 2026).)
